Data published in the Kinase Knowledgebase extract (Sharma et al. 2016).

Columns and labels:
CDK2 (human) [1] = target: CDK2 (human) (UniProt P24941); assay: Enzyme Assay
CDK2 (human) [2] = target: CDK2 (human) (UniProt P24941); assay: Enzyme Assay; remark: listed apart in the source

SMILES	Kd (CDK2 (human) [1]) [nM]	Kd (CDK2 (human) [2]) [nM]
NS(=O)(=O)Cc1cccc(Nc2ncnc(N3CCC[C@@H]3COCc3ccccc3)n2)c1	> 10000	
NS(=O)(=O)Cc1cccc(Nc2ncnc(N3CCc4ncccc4C3)n2)c1	100 to 1000	100 to 1000
NS(=O)(=O)Cc1cccc(Nc2ncnc(N3CCc4ccccc43)n2)c1	100 to 1000	
NS(=O)(=O)Cc1cccc(Nc2ncnc(N3CCCc4ccccc43)n2)c1	100 to 1000	
NS(=O)(=O)Cc1cccc(Nc2ncnc(N3CCC[C@H]3CO)n2)c1	> 10000	
COC[C@H]1CCCCN1c1ncnc(Nc2cccc(CS(N)(=O)=O)c2)n1	> 10000	
NS(=O)(=O)Cc1cccc(Nc2ncnc(N3CCc4nc[nH]c4C3)n2)c1	< 100	
NS(=O)(=O)Cc1cccc(Nc2ncnc(N3CCc4ncsc4C3)n2)c1	< 100	< 100
NS(=O)(=O)Cc1cccc(Nc2ncnc(N3CCC[C@@H]3CN3CCCC3)n2)c1	> 10000	
NS(=O)(=O)Cc1cccc(Nc2ncnc(N3CCC[C@@H]3CO)n2)c1	> 10000	
NS(=O)(=O)Cc1cccc(Nc2ncnc(N3CCCC3c3ccccc3)n2)c1 (configuration not stated)		> 10000
CN(C)CCC1CCCCN1c1ncnc(Nc2cccc(CS(N)(=O)=O)c2)n1 (configuration not stated)		> 10000
NS(=O)(=O)Cc1cccc(Nc2ncnc(N3Cc4cn[nH]c4C3)n2)c1		100 to 1000
NS(=O)(=O)Cc1cccc(Nc2ncnc(N3Cc4ccncc4C3)n2)c1	100 to 1000	
NS(=O)(=O)Cc1cccc(Nc2ncnc(N3CCCCC3)n2)c1	> 10000	> 10000
COC[C@@H]1CCCN1c1ncnc(Nc2cccc(CS(N)(=O)=O)c2)n1	> 10000	
NS(=O)(=O)Cc1cccc(Nc2ncnc(N3CCCn4nccc43)n2)c1	< 100	< 100
COC[C@H]1CCN1c1ncnc(Nc2cccc(CS(N)(=O)=O)c2)n1	> 10000	
